Reference: PubChem BioAssay (NCI)
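The compound was tested at five concentrations on cells cultured in 96-well plates, with a 48-hour exposure period. The concentration for full growth arrest is given as TGI.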

Assays:
Experiment in all cases: DTP human tumour cell line panel, 48 h
786-0 renal = system: 786-0 renal
HCC-2998 colon = system: HCC-2998 colon
IGROV1 ovarian = system: IGROV1 ovarian
M14 melanoma = system: M14 melanoma
MDA-MB-435 = system: MDA-MB-435
SF-268 CNS = system: SF-268 CNS
SF-295 CNS = system: SF-295 CNS
SK-MEL-5 melanoma = system: SK-MEL-5 melanoma
SK-OV-3 ovarian = system: SK-OV-3 ovarian
SN12C renal = system: SN12C renal
SNB-19 CNS = system: SNB-19 CNS

Nc1ccccc1CCN1CCN(CCCc2ccccc2)CC1
TGI (786-0 renal): > 100 µM
TGI (HCC-2998 colon): 39 µM
TGI (IGROV1 ovarian): > 100 µM
TGI (M14 melanoma): 35.4 µM
TGI (MDA-MB-435): > 100 µM
TGI (SF-268 CNS): > 100 µM
TGI (SF-295 CNS): > 100 µM
TGI (SK-MEL-5 melanoma): 32.6 µM
TGI (SK-OV-3 ovarian): > 100 µM
TGI (SN12C renal): > 100 µM
TGI (SNB-19 CNS): > 100 µM

CCOC(=O)c1sc(=S)n(-c2ccc(Cl)cc2)c1-n1cc(-c2ccccc2)c(C#N)c1N
TGI (786-0 renal): 22.9 µM
TGI (HCC-2998 colon): > 100 µM
TGI (IGROV1 ovarian): 40.5 µM
TGI (M14 melanoma): > 100 µM
TGI (MDA-MB-435): > 100 µM
TGI (SF-268 CNS): 8.6 µM
TGI (SF-295 CNS): 33.6 µM
TGI (SK-MEL-5 melanoma): 84.5 µM
TGI (SK-OV-3 ovarian): 36 µM
TGI (SN12C renal): 69.7 µM
TGI (SNB-19 CNS): 41.6 µM

O=C(/C=C/c1ccc(O)c(O)c1)OCC(OC(=O)/C=C/c1ccc(O)c(O)c1)C(=O)O (centres undefined)
TGI (786-0 renal): > 100 µM
TGI (HCC-2998 colon): > 100 µM
TGI (IGROV1 ovarian): > 100 µM
TGI (M14 melanoma): > 100 µM
TGI (MDA-MB-435): > 100 µM
TGI (SF-268 CNS): > 100 µM
TGI (SF-295 CNS): > 100 µM
TGI (SK-MEL-5 melanoma): > 100 µM
TGI (SK-OV-3 ovarian): > 100 µM
TGI (SN12C renal): > 100 µM
TGI (SNB-19 CNS): > 100 µM

CS(=O)(=O)Nc1ccc2ccccc2c1-c1c(NS(C)(=O)=O)ccc2ccccc12
TGI (786-0 renal): > 25 µM
TGI (HCC-2998 colon): > 25 µM
TGI (IGROV1 ovarian): > 25 µM
TGI (M14 melanoma): > 25 µM
TGI (MDA-MB-435): > 25 µM
TGI (SF-268 CNS): > 25 µM
TGI (SF-295 CNS): > 25 µM
TGI (SK-MEL-5 melanoma): > 25 µM
TGI (SK-OV-3 ovarian): > 25 µM
TGI (SN12C renal): > 25 µM
TGI (SNB-19 CNS): > 25 µM

COc1ccc(-c2c(C(C)=O)c(-c3ccccc3)n(C3OC(CO)C(O)C(O)C3O)c(=S)c2C#N)cc1 (centres undefined)
TGI (786-0 renal): > 100 µM
TGI (HCC-2998 colon): > 100 µM
TGI (IGROV1 ovarian): > 100 µM
TGI (M14 melanoma): > 100 µM
TGI (MDA-MB-435): > 100 µM
TGI (SF-268 CNS): > 100 µM
TGI (SF-295 CNS): > 100 µM
TGI (SK-MEL-5 melanoma): > 100 µM
TGI (SK-OV-3 ovarian): > 100 µM
TGI (SN12C renal): > 100 µM
TGI (SNB-19 CNS): > 100 µM

O=C(NN1C(=O)C(Cl)C1c1ccc(Cl)cc1)c1c(Cl)c(Cl)c(Cl)c(Cl)c1-c1nc2ccccc2[nH]1 (centres undefined)
TGI (786-0 renal): 47.4 µM
TGI (HCC-2998 colon): 30.9 µM
TGI (IGROV1 ovarian): 45.8 µM
TGI (M14 melanoma): 74.9 µM
TGI (MDA-MB-435): 80.5 µM
TGI (SF-268 CNS): > 100 µM
TGI (SF-295 CNS): > 100 µM
TGI (SK-MEL-5 melanoma): > 100 µM
TGI (SK-OV-3 ovarian): > 100 µM
TGI (SN12C renal): 83.2 µM
TGI (SNB-19 CNS): > 100 µM

C=CC[C@]1(/C=N/O)CN(S(=O)(=O)CC[Si](C)(C)C)C[C@H]2CC=CC[C@H]21
TGI (786-0 renal): 32.5 µM
TGI (HCC-2998 colon): 31.9 µM
TGI (IGROV1 ovarian): 34.8 µM
TGI (M14 melanoma): 45 µM
TGI (MDA-MB-435): > 100 µM
TGI (SF-268 CNS): > 100 µM
TGI (SF-295 CNS): 31 µM
TGI (SK-MEL-5 melanoma): > 100 µM
TGI (SK-OV-3 ovarian): 64.5 µM
TGI (SN12C renal): 30 µM
TGI (SNB-19 CNS): 42.3 µM

C=C(CCOC)CCC1CCCCC(CN(C)C)C1=O (centres undefined)
TGI (786-0 renal): > 100 µM
TGI (HCC-2998 colon): > 100 µM
TGI (IGROV1 ovarian): > 100 µM
TGI (M14 melanoma): > 100 µM
TGI (MDA-MB-435): > 100 µM
TGI (SF-268 CNS): > 100 µM
TGI (SF-295 CNS): > 100 µM
TGI (SK-MEL-5 melanoma): > 100 µM
TGI (SK-OV-3 ovarian): > 100 µM
TGI (SN12C renal): > 100 µM
TGI (SNB-19 CNS): > 100 µM

N#CSCC(Cl)=CCl (mixture of isomers)
TGI (786-0 renal): > 100 µM
TGI (HCC-2998 colon): > 100 µM
TGI (IGROV1 ovarian): > 100 µM
TGI (M14 melanoma): > 100 µM
TGI (MDA-MB-435): > 100 µM
TGI (SF-268 CNS): > 100 µM
TGI (SF-295 CNS): > 100 µM
TGI (SK-MEL-5 melanoma): > 100 µM
TGI (SK-OV-3 ovarian): > 100 µM
TGI (SN12C renal): > 100 µM
TGI (SNB-19 CNS): > 100 µM

Cc1n(CC(C)C)c2c([n+]1C)C(=O)c1ccccc1C2=O
TGI (786-0 renal): 3.41 µM
TGI (HCC-2998 colon): 1.53 µM
TGI (IGROV1 ovarian): 0.101 µM
TGI (M14 melanoma): 1.06 µM
TGI (MDA-MB-435): 0.277 µM
TGI (SF-268 CNS): 0.155 µM
TGI (SF-295 CNS): 1.65 µM
TGI (SK-MEL-5 melanoma): 0.139 µM
TGI (SK-OV-3 ovarian): 2.2 µM
TGI (SN12C renal): 0.0671 µM
TGI (SNB-19 CNS): 0.647 µM

CCCCCCNCCc1cnc[nH]1
TGI (786-0 renal): > 100 µM
TGI (HCC-2998 colon): > 100 µM
TGI (IGROV1 ovarian): > 100 µM
TGI (M14 melanoma): > 100 µM
TGI (MDA-MB-435): > 100 µM
TGI (SF-268 CNS): > 100 µM
TGI (SF-295 CNS): > 100 µM
TGI (SK-MEL-5 melanoma): > 100 µM
TGI (SK-OV-3 ovarian): > 100 µM
TGI (SN12C renal): > 100 µM
TGI (SNB-19 CNS): > 100 µM

COC1(OC)N=C(N)C2(C#N)C(c3ccccc3)NC3=C(CCC3)C12C#N (centres undefined)
TGI (786-0 renal): > 100 µM
TGI (HCC-2998 colon): > 100 µM
TGI (IGROV1 ovarian): > 100 µM
TGI (M14 melanoma): > 100 µM
TGI (MDA-MB-435): > 100 µM
TGI (SF-268 CNS): > 100 µM
TGI (SF-295 CNS): > 100 µM
TGI (SK-MEL-5 melanoma): > 100 µM
TGI (SK-OV-3 ovarian): > 100 µM
TGI (SN12C renal): > 100 µM
TGI (SNB-19 CNS): > 100 µM

CCOC(=O)/C=C(\C(=O)OCC)n1cc(C)c(=O)n(Cc2cn(CCCCOC(C)=O)nn2)c1=O
TGI (786-0 renal): 16.5 µM
TGI (HCC-2998 colon): 34 µM
TGI (IGROV1 ovarian): 27.5 µM
TGI (M14 melanoma): 27 µM
TGI (MDA-MB-435): 28.6 µM
TGI (SF-268 CNS): 28.4 µM
TGI (SF-295 CNS): 35.5 µM
TGI (SK-MEL-5 melanoma): > 53.1 µM
TGI (SK-OV-3 ovarian): > 70.7 µM
TGI (SN12C renal): > 56.7 µM
TGI (SNB-19 CNS): 47.3 µM

COc1ccc2c(c1)/C(=C\c1c(Cl)[nH]c3cc(C)c(OC)cc13)C(=O)N2
TGI (786-0 renal): 13 µM
TGI (HCC-2998 colon): 6.19 µM
TGI (IGROV1 ovarian): 5.3 µM
TGI (M14 melanoma): 5.63 µM
TGI (MDA-MB-435): 0.596 µM
TGI (SF-268 CNS): 8.77 µM
TGI (SF-295 CNS): 13.4 µM
TGI (SK-MEL-5 melanoma): 8.7 µM
TGI (SK-OV-3 ovarian): 3.07 µM
TGI (SN12C renal): 10.7 µM
TGI (SNB-19 CNS): 12.8 µM

COC(=O)C1Cc2cc3c(cc2C1=O)CCC3 (centres undefined)
TGI (786-0 renal): > 100 µM
TGI (HCC-2998 colon): > 100 µM
TGI (IGROV1 ovarian): > 100 µM
TGI (M14 melanoma): > 100 µM
TGI (MDA-MB-435): > 100 µM
TGI (SF-268 CNS): > 100 µM
TGI (SF-295 CNS): > 100 µM
TGI (SK-MEL-5 melanoma): > 100 µM
TGI (SK-OV-3 ovarian): > 100 µM
TGI (SN12C renal): > 100 µM
TGI (SNB-19 CNS): > 100 µM

CC1(C)[C@@H]2CC[C@]1(C)[C@H](OC(=O)CSC#N)C2
TGI (786-0 renal): 34.1 µM
TGI (HCC-2998 colon): > 100 µM
TGI (IGROV1 ovarian): > 100 µM
TGI (M14 melanoma): > 100 µM
TGI (MDA-MB-435): > 100 µM
TGI (SF-268 CNS): > 100 µM
TGI (SF-295 CNS): > 100 µM
TGI (SK-MEL-5 melanoma): > 100 µM
TGI (SK-OV-3 ovarian): > 100 µM
TGI (SN12C renal): > 100 µM
TGI (SNB-19 CNS): > 100 µM

O=C1NC(=S)N/C1=C\c1cccs1
TGI (786-0 renal): > 100 µM
TGI (HCC-2998 colon): > 100 µM
TGI (IGROV1 ovarian): > 100 µM
TGI (M14 melanoma): > 100 µM
TGI (MDA-MB-435): > 100 µM
TGI (SF-268 CNS): > 100 µM
TGI (SF-295 CNS): > 100 µM
TGI (SK-MEL-5 melanoma): > 100 µM
TGI (SK-OV-3 ovarian): > 100 µM
TGI (SN12C renal): > 100 µM
TGI (SNB-19 CNS): > 100 µM

Nn1c(C23CC4CC(CC(C4)C2)C3)n[nH]c1=S
TGI (786-0 renal): > 100 µM
TGI (HCC-2998 colon): > 100 µM
TGI (IGROV1 ovarian): > 100 µM
TGI (M14 melanoma): > 100 µM
TGI (MDA-MB-435): > 100 µM
TGI (SF-268 CNS): > 100 µM
TGI (SF-295 CNS): > 100 µM
TGI (SK-MEL-5 melanoma): > 100 µM
TGI (SK-OV-3 ovarian): > 100 µM
TGI (SN12C renal): > 100 µM
TGI (SNB-19 CNS): > 100 µM

OC(CNc1ccccn1)c1ccccc1 (centres undefined)
TGI (786-0 renal): > 100 µM
TGI (HCC-2998 colon): > 100 µM
TGI (IGROV1 ovarian): > 100 µM
TGI (M14 melanoma): > 100 µM
TGI (MDA-MB-435): > 100 µM
TGI (SF-268 CNS): > 100 µM
TGI (SF-295 CNS): > 100 µM
TGI (SK-MEL-5 melanoma): > 100 µM
TGI (SK-OV-3 ovarian): > 100 µM
TGI (SN12C renal): > 100 µM
TGI (SNB-19 CNS): > 100 µM
